ChEMBL document CHEMBL3992566, “Development and Biological Evaluation of a Photoactivatable Small Molecule Microtubule-Targeting Agent” (ACS Med Chem Lett, 2017)
Calls of active or inactive are those of the source. No cut-off for these calls is given here.

What was measured:
[1] = species on record: Sus scrofa; assay: Inhibition of colchicine binding to porcine brain tubulin up to 60 uM after 90 mins by fluorescence assay
[2] = species on record: Sus scrofa; assay: Inhibition of porcine brain tubulin polymerization at 3 uM by fluorescence assay
[3] = test system: U-251; assay: Cytotoxicity against human U251 cells assessed as reduction in cell viability at >40 uM after 72 hrs by Cell-Titer Blue assay; format: functional, cell-based
[4] = Drug metabolism in human U251 cells assessed as DMNB release up to 100 uM under UV irradiation of 1800 mW for 1 min measured after 72 hrs; format: ADME, cell-based; conditions: u-251, 72 h
[5] = test system: U-251; assay: Phototoxicity against human U251 cells assessed as reduction in cell viability up to 100 uM under UV irradiation of 1800 mW for 1 min measured after 72 hrs by Cell-Titer Blue assay; format: functional, cell-based
[6] = species on record: Homo sapiens; assay: Disruption of microtubule organization in human U251 cells assessed as changes in cell morphology at 5 uM after 24 hrs by DAPI staining based immunofluorescence assay
[7] = test system: U-251; assay: Phototoxicity against human U251 cells assessed as reduction in cell viability under UV irradiation of 1800 mW for 1 min measured after 72 hrs by Cell-Titer Blue assay; format: functional, cell-based; conditions: U-251, light or radiation study
[8] = species on record: Sus scrofa; assay: Inhibition of porcine brain tubulin polymerization at 50 uM by fluorescence assay
[9] = Cytotoxicity against patient-derived RN1 cells assessed as reduction in cell viability after 72 hrs by Cell-Titer Blue assay; format: functional, cell-based; conditions: Homo sapiens, RN1, 72 h
[10] = Phototoxicity against patient-derived RN1 cells assessed as reduction in cell viability under UV irradiation of 1800 mW for 30 secs measured after 72 hrs by Cell-Titer Blue assay; format: functional, cell-based; conditions: Homo sapiens, RN1, light or radiation study
[11] = test system: U-251; assay: Cytotoxicity against human U251 cells assessed as reduction in cell viability after 72 hrs by Cell-Titer Blue assay; format: functional, cell-based; conditions: U-251, 72 h
[12] = species on record: Sus scrofa; assay: Inhibition of colchicine binding to porcine brain tubulin after 90 mins by fluorescence assay
[13] = Induction of apoptosis in patient-derived RN1 cells at 5 uM after 48 hrs by Annexin V staining based assay (reference value: 8.1%); format: functional, Homo sapiens
[14] = Photostability of the compound at 1 mM under UV irradiation of 5400 mW after 20 mins by HPLC-MS analysis
[15] = species on record: Homo sapiens; assay: Disruption of microtubule organization in human U251 cells at 5 uM after 24 hrs by DAPI staining based immunofluorescence assay; format: cell-based
[16] = Photoactivation of prodrug assessed as time required to release maximum concentration of 4-(4-(2-fluoropyridin-3-yl)phenyl)-N-(4-hydroxyphenyl)butanamide at 1 mM under UV irradiation of 5400 mW by HPLC-MS analysis
[17] = Induction of apoptosis in patient-derived RN1 cells assessed as live cells at 5 uM after 48 hrs under UV irradiation of 1800 mW for 30 secs by Annexin V staining based assay relative to control; format: functional, Homo sapiens
[18] = Dark toxicity against patient-derived RN1 cells assessed as reduction in cell viability after 72 hrs by Cell-Titer Blue assay; format: cell-based; conditions: human
[19] = Disruption of microtubule organization in human U251 cells assessed as changes in cell morphology at 5 uM after 24 hrs under dark condition by DAPI staining based immunofluorescence assay; format: ADME
[20] = Induction of apoptosis in patient-derived RN1 cells at 5 uM after 48 hrs under dark condition by Annexin V staining based assay (reference value: 8.1%); format: cell-based; conditions: human, rn1, 48 h
[21] = species on record: Homo sapiens; assay: Disruption of microtubule organization in human U251 cells at 5 uM after 24 hrs under UV irradiation of 1800 mW for 5 mins by DAPI staining based immunofluorescence assay; format: cell-based
[22] = Disruption of microtubule organization in human U251 cells at 5 uM after 24 hrs under dark condition by DAPI staining based immunofluorescence assay; format: ADME, cell-based
[23] = Induction of apoptosis in patient-derived RN1 cells assessed as late apoptotic cells at 5 uM after 48 hrs under UV irradiation of 1800 mW for 30 secs by Annexin V staining based assay relative to control; format: functional, Homo sapiens
[24] = species on record: Homo sapiens; assay: Disruption of microtubule organization in human U251 cells assessed as cell rounding at 5 uM after 24 hrs under UV irradiation of 1800 mW for 5 mins by DAPI staining based immunofluorescence assay
[25] = Induction of apoptosis in patient-derived RN1 cells assessed as early apoptotic cells at 5 uM after 48 hrs under UV irradiation of 1800 mW for 30 secs by Annexin V staining based assay relative to control; format: functional, Homo sapiens
[26] = Photoactivation of prodrug assessed as 4-(4-(2-fluoropyridin-3-yl)phenyl)-N-(4-hydroxyphenyl)butanamide release at 1 mM under UV irradiation of 5400 mW after 1 min by HPLC-MS analysis
[27] = Dark toxicity against human U251 cells assessed as reduction in cell viability after 72 hrs by Cell-Titer Blue assay; format: cell-based, U-251
[28] = Induction of apoptosis in patient-derived RN1 cells assessed as necrotic cells at 5 uM after 48 hrs under UV irradiation of 1800 mW for 30 secs by Annexin V staining based assay relative to control; format: functional, Homo sapiens
[29] = Effect on colchicine binding to porcine brain tubulin up to 60 uM after 90 mins under dark condition by fluorescence assay; format: ADME, Sus scrofa; conditions: pig, 1.5 h
[30] = species on record: Sus scrofa; assay: Inhibition of porcine brain tubulin polymerization at 50 uM under UV irradiation of 1800 mW for 5 mins by fluorescence assay
[31] = Effect on kinetics of porcine brain tubulin polymerization at 50 uM under dark condition by fluorescence assay; format: ADME, Sus scrofa; conditions: pig
[32] = Photoactivation of prodrug assessed as decay time constant for 4-(4-(2-fluoropyridin-3-yl)phenyl)-N-(4-hydroxyphenyl)butanamide release at 1 mM under UV irradiation of 5400 mW after 1 min by HPLC-MS analysis

COC(=O)Nc1nc2cc(C(=O)c3cccs3)ccc2[nH]1
inhibition [1]: Active

CC(=O)O[C@H]1C(=O)[C@@]2(C)[C@H]([C@H](OC(=O)c3ccccc3)[C@]3(O)C[C@H](OC(=O)[C@H](O)[C@@H](NC(=O)c4ccccc4)c4ccccc4)C(C)=C1C3(C)C)[C@]1(OC(C)=O)CO[C@@H]1C[C@@H]2O
inhibition [2]: inactive

O=C(CCCc1ccc(-c2cccnc2F)cc1)Nc1ccc(OCc2ccccc2)cc1
Activity [3]: inactive

COc1cc(COC(=O)C(C)NC(=O)OC(C)(C)C)c([N+](=O)[O-])cc1OC (stereo unspecified)
Drug metabolism [4]: Metabolite_Detected
Activity [5]: inactive

O=C(CCCc1ccc(-c2cccnc2F)cc1)Nc1ccc(O)cc1
Activity [6]: Active
EC50 [7]: 1.4 µM
inhibition [8]: Active
EC50 [9]: 0.3 µM
EC50 [10]: 0.7 µM
EC50 [11]: 1.3 µM
inhibition [12]: Dose-dependent effect
Activity [13]: 47.8%
Stability [14]: Stable
Activity [15]: Active

COc1cc(COc2ccc(NC(=O)CCCc3ccc(-c4cccnc4F)cc3)cc2)c([N+](=O)[O-])cc1OC
TIME [16]: > 0.0333 h
Activity [17]: 36.95%
EC50 at 72 h [18]: 37.4 µM
EC50 [7]: 2.1 µM
Activity [19]: Not Active
Activity [20]: 12.6%
Activity [21]: Active
Activity [22]: Not Active
Activity [23]: 41.3%
Activity [24]: Active
Activity [25]: 20.75%
Drug metabolism [26]: 80%
EC50 at 72 h [27]: 72 µM
EC50 [10]: 1.2 µM
Activity [28]: 0.5%
Activity [29]: Not Active
inhibition [30]: Active
Activity [31]: Not Active
TIME [32]: 0.0101 h

CC[C@]1(O)C[C@@H]2CN(CCc3c([nH]c4ccccc34)[C@@](C(=O)OC)(c3cc4c(cc3OC)N(C)[C@H]3[C@@](O)(C(=O)OC)[C@H](OC(C)=O)[C@]5(CC)C=CCN6CC[C@]43[C@@H]65)C2)C1
inhibition [1]: inactive
inhibition [2]: Active
